Values quoted from earlier work in US20080200510A1, “Combination of Organic Compounds” (priority 2005, published 2008).

Columns and labels:
[1] = not given; remark: listed apart in the source
diet-induced obesity = details: preclinical studies; by decreasing body weight, food intake, regulating circulating lipids and energy balance

Compound | glycemia (agent alone, by preserving the incretin effects) | body weight reduction in clinic [1] | body weight (agent by itself) | food intake (agent by itself) | reversal of diet-induced obesity (diet-induced obesity)
N#C[C@@H]1CCCN1C(=O)CNC12CC3CC(CC(O)(C3)C1)C2 [Vildagliptin, (S)-1-[(3-hydroxy-1-adamantyl)amino]acetyl-2-cyano-pyrrolidine] | improves glycemia | – | – | – | –
Cc1c(C(=O)NN2CCCCC2)nn(-c2ccc(Cl)cc2Cl)c1-c1ccc(Cl)cc1 [rimonabant, N-piperidino-5-(4-chlorophenyl)-1-(2,4-dichlorophenyl)-4-methylpyrazole-3-carboxamide] | – | highly effective to produce body weight reduction | reduction in body weight | decrease in food intake | effective in reversing diet-induced obesity
